Here are results for 1 compound from US10130611B2, “Use of benzo-heterocycle derivatives for preventing and treating cancer or for inhibiting cancer metastasis” (MEDICINAL BIOCONVERGENCE RESEARCH CENTER, priority 2009, dated 2018).

Assay [1] relates to A549 cells. The experiment in a line: Cell migration assay (transwell membrane). The assay is classed as cell-based, human. The settings on record: KL1 in different amounts, 8 hours. As for the experimental part:
On MMP2 activity (FIG. 37) and cell migration (FIGS. 38 and 39), KL1-dose-dependent effect was measured. For the test on the cell migration, the cells were treated with KL1 for 8 hours. In FIG. 40, in order to see the effect of KL1 on protein synthesis of cells, A549 cells were treated with KL1 at indicated concentrations, and starved in methionine-free medium. Then, [^35S] methionine was added thereto for 2 hours. Then, the cells were incubated in complete medium for 4 hours, and the level of added methionine was measured by a scintillation counter. In FIG. 41, KL1-dose-dependent cytotoxicity was measured by using A549 cells. In FIG. 42, the effect of KL1 on cancer metastasis was measured according to the method as described above. In each group, 6 mice were included, and KL1 was abdominally injected for 3 weeks, in a dose of 30 mg/kg once a day. […] The metastasized tumor nodules over 1 mm in diameter were counted, and their average was calculated (left). […]
Cell migration was measured by using 24-well transwell chambers with polycarbonate membranes (8.0 μm pore size, Costar) as previously described (Park, S. G. et al. Human lysyl-tRNA synthetase is secreted to trigger pro-inflammatory response, Proc. Natl. Acad. Sci. USA 102, 6356-6361 (2005)). […] The migrated cells (attached to the lower face of the membrane) were counted at four randomly selected sites by a microscope (×20).

Assay [2] concerns the target T1, MRS-AIMP3 (Homo sapiens, UniProt P56192).
T1 construct: expressed in transfected cells; host or cells: yeast
T1 sequence (P56192 1-900): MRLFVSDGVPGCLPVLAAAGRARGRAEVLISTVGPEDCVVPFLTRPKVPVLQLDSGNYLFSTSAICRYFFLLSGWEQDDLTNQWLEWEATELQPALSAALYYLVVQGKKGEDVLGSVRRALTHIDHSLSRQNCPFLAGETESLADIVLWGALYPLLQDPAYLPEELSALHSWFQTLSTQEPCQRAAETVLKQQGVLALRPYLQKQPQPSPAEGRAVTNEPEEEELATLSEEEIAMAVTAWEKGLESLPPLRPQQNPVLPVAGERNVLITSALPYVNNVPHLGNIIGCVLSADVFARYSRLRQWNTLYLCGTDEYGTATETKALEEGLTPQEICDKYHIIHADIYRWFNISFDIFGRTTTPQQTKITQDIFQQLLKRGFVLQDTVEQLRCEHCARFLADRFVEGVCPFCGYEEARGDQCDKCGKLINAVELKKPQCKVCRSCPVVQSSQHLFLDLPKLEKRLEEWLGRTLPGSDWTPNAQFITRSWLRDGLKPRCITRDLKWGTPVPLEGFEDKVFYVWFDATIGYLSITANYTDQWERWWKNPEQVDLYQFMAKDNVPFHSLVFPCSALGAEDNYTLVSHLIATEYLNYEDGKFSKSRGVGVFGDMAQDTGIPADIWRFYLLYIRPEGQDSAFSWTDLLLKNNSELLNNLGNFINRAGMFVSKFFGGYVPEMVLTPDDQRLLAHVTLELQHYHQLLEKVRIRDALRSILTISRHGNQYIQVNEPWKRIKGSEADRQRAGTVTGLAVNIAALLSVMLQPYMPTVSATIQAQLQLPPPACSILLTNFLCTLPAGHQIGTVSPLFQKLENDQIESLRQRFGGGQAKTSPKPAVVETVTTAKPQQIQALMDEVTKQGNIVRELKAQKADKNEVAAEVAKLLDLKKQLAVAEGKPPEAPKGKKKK
The experiment in a line: Yeast two hybrid specificity test, LexA-MRS/B42-AIMP3 pair. In kind it is cell-based. Conditions: compound at 50 μg/ml, DMSO control 1.4732. The protocol:
On the compound of the present invention obtained by screening a library of compounds, the extent of inhibition on the interaction between KRS and laminin receptor (67LR) was determined by a yeast two hybrid assay, as described below. KRS, LR, AIMP2, AIMP3 and MRS were cloned at LexA vector (clontech) and B42 vector (clontech) each so as to produce required vectors. From among the vectors, LexA-KRS vector and B42-LR vector were co-transformed into yeast EGY/SH cells, and then the yeast cells were diluted to an absorbance (540 nm wavelength) of 0.2 in galactose medium not containing uracil (Ura), histidine (His), tryptophane (Trp) and leucine (Leu), and placed in an amount of 200 u in a 96 well plate. 1 μl of each compound at a concentration of 10 mg/ml was placed in each well, incubated for 6 days, and the absorbance was measured at 540 nm. […] The inhibitory specificity of the selected compound was tested by using two different interaction pairs such as LexA-KRS/B42-AIMP2 and LexA-MRS/B42-AIMP3. […]

As to `CCC(C(=O)O)n1/c(=N/C(=O)c2ccc(C)cc2)sc2ccccc21` (centres unmarked) [Compound of formula 15, 2-[2-(4-Methyl-benzoylimino)-benzothiazol-3-yl]-butyric acid], the cell migration result in assay [1] is given as “inhibited”. The “MRS-AIMP3 (yeast growth, OD level)” value in assay [2] worked out at 1.2443.
